In patent publication US11059807B2, “Amine cationic lipids and uses thereof” (Dicerna Pharmaceuticals, Inc., priority 2011, dated 2021):

Legend:
[1] = test system: HPRT1 mRNA in mouse liver; assay: In vivo knockdown of HPRT1 mRNA in mouse liver, lipid particles with DsiRNA; settings: CD1 mice; for % mRNA Knockdown: single IV dose 5 mg/kg, HPRT1 DsiRNA; for % mRNA Knockdown / mrna remaining at 5 mg/kg: 48 hours; for gene silencing at the lower dose: single dose 1 mg/kg, FIG. 12; for mrna remaining at 5 mg/kg: Mus musculus, single dose 5 mg/kg, FIG. 11, read-out: remaining mRNA levels
Protocol: Formulations were prepared with the following approximate percentages: 20 mol % of one of either L-1, L-2, L-5, L-6, L-7, L-8, L-22, or L-30; 26 mol % of DODMA; 3 mol % of PEG2000-DMPE; 3 mol % of PEG2000-DMG; 13 mol % of DSPC; and 33 mol % of cholesterol. The formulation further included a DsiRNA:total lipid ratio of about 1:20 (w/w).
Approximately 4-week old CD1 female mice were administered a single dose (either 1 mg/kg or 5 mg/kg) of the lipid particle formulation with a dosing volume of 10 μL/g of body weight by intravenous administration via a tail vein. After 48 hours (post-dosing), tissues were collected in RNALater (Qiagen). In the end point analysis, the total RNA was isolated from the mouse liver for RT-qPCR. The RNA sample was heated at 70° C., for 5 minutes with Oligo(dT) primers before RT. In the PCR reaction, mHPRT expression was normalized with RPL23 (a housekeeping gene, used as a control herein). FIGS. 11 and 12 show data with error bars with mean±SD for n=5 animals/group.

[2] = TNS fluorescence method, apparent pKa of lipid in formulation; format: physicochemical; settings: apparent pKa of the formulation, pH at half-maximal TNS fluorescence
Source text: The TNS fluorescence method may be used to determine the apparent pKa of the lipid in the formulation. TNS (2-(p-toluidino)-6-naphthalene sulfonic acid) is a negatively charged fluorescent dye whose fluorescence is quenched in the presence of water. […] The increase in the fluorescence can thus be used to estimate the ionization of a cationic lipid when present in different pH environment. Methods of determining pKa using TNS are known in the art, e.g., as described in the Examples.
To determine pKa values of the cationic lipids of the invention, formulations (concentration of 1 mM) were incubated in phosphate buffer at different pH values, to which TNS dissolved in DMSO was added (resulting final concentration of 6 μM TNS). Fluorescence of the resulting solution was measured on a SpectraMax® M3 fluorescence plate reader with excitation wavelength of 325 nm and emission wavelength of 435 nm. The measured fluorescence of TNS was fitted with a three-parameter sigmoidal function shown in equation 1.
The pH at which half of the maximum fluorescence was reached was reported as the apparent pKa of the formulation, where a and b are dimensionless parameters reflecting the maximum observed fluorescence and slope of the sigmoidal function, respectively.

[3] = Tolerability of lipid formulations in CD-1 mice (serum clinical chemistry, body weight, liver); format: in vivo, mouse; settings: female CD-1 mice, 2 doses (qod) 10 mg/kg DsiRNA
Protocol: In order to assess the tolerability of a lipid formulation containing an amino-amine or amino-amide cationic lipid of the invention and a dsRNA, female CD-1 mice were injected with L-6 and L-30 formulations [administered in 2 doses (qod) at 10 mg/kg DsiRNA dose, about 200 mg/kg total lipid dose each] and serum samples were collected 48 hours after the second dose. Serum samples were tested for a panel of clinical chemistry assessments, including liver function tests (LFTs) via measurement of enzymes alanine transaminase (ALT) and aspartate transaminase (AST). Phosphate buffered saline (PBS) was used as vehicle control group. ALT and AST elevation was <3x of PBS group for formulations L-6 and L-30. There were also no changes in body weight or liver observed for L-6 and L-30 formulations. Thus, L-6 and L-30 formulations were well-tolerated. Thus, any of the lipids described herein, and formulations thereof, would be useful for the delivery of one or more agent, e.g., polyanionic or antisense payloads.

[4] = test system: HPRT1 mRNA in liver tissues; assay: HepG2 orthotopic liver tumor model: HPRT1 mRNA knockdown in liver; format: in vivo, mouse; settings: 5 mg/kg DsiRNA IV, Table 8 formulation, FIG. 14
Source text: In order to assess the efficiency of targeting and subsequent functionality of an amino-amine or amino-amide cationic lipid formulation of dsRNA, a second intrahepatic tumor model was utilized. Liver tumors were established in mice by direct intrahepatic injection of HepG2 tumor cells. Female nu/nu mice were used as hosts for the HepG2 tumors. Maintaining the mice under anesthesia using Avertin (Sigma), a single 1-cm incision across the midline was made below the sternum, and the left lateral hepatic lobe is exteriorized. Approximately 3×10^6 HepG2 cells suspended in 60 μL of 50% PBS/50% Matrigel™ (BD) are injected slowly into the lobe at a shallow angle using a Hamilton syringe and a 30-gauge needle. A swab was then applied to the puncture wound to stop any bleeding prior to suturing. Mice were allowed to recover from anesthesia in a sterile cage and monitored closely for 2-4 hours before being returned to conventional housing. About three weeks after tumor implantation, mice were randomized into treatment groups. […] The dose was calculated based on mg of dsRNAs/kg of body weight basis according to individual animal weights. […] Body weights were monitored throughout the duration of the study as an indicator of developing tumor burden and treatment tolerability. For efficacy studies, defined humane end points were determined as a surrogate for survival. […]

Hep3B tumor = assay: Hepatocellular carcinoma anti-tumor efficacy, orthotopic Hep3B model (serum AFP, tumor weight); format: in vivo, mouse; settings: 5 mg/kg active DsiRNA IV, vs control payload and PBS; for reducing serum AFP: FIG. 15; for reducing tumor weight: FIG. 16
Source text: Liver tumors were established in mice by direct intrahepatic injection of Hep3B tumor cells as described in Example 10. About two weeks after tumor implantation, mice were randomized into treatment groups. Mice (n=6 per group) received: either (1) the amino-amine or amino-amide lipid formulation of a control dsRNA; (2) the amino-amine or amino-amide lipid formulation of an active dsRNA; or (3) vehicle control, as administered by standard intravenous (i.v.) injection via the lateral tail vein. The dose was calculated based on mg of dsRNAs/kg of body weight basis according to individual animal weights. In the experiments that generated the results shown in FIGS. 15 and 16, animals were dosed at 5 mg/kg DsiRNA with L-6- or L-30-formulated lipid particles. Table 8 above presents specific compositions of lipid formulations comprising the L-6 and L-30 lipids used in the instant studies.
Body weights were monitored throughout the duration of the study as an indicator of developing tumor burden and treatment tolerability. For efficacy studies, defined humane end points were determined as a surrogate for survival. Assessments were made based on a combination of clinical signs, weight loss, and abdominal distension to define the day of euthanization due to tumor burden. Tumor tissues were removed from the animals of different treatment groups and tumor weights were measured to determine efficacy of different treatment groups. Serum α-fetoprotein (AFP) levels were also measured as a biomarker for tumor burden.

SMILES | % mRNA Knockdown [1] [%] | gene silencing at the lower dose [1] | mrna remaining at 5 mg/kg [1] [%] | pKa [2] | changes in body weight or liver [3] | tolerability [3] | delivery of anti-HPRT1 DsiRNA payload to liver tissues [4] | reducing serum AFP (Hep3B tumor) | reducing tumor weight (Hep3B tumor)
CCCCC/C=C\C/C=C\CCCCCCCCC(CCCCCCCC/C=C\C/C=C\CCCCC)N1CCN(C)CC1 [Compound L-6] | 88.2 | effective gene silencing | 15 to 45 | 5.6 | no changes | well-tolerated | remarkably effective | remarkably effective | remarkably effective
CCCCC/C=C\C/C=C\CCCCCCCCC(CCCCCCCC/C=C\C/C=C\CCCCC)NC(=O)CN(C)C [Compound L-30] | 86.4 | effective gene silencing | ~15 | 5.8 | no changes | well-tolerated | remarkably effective | remarkably effective | remarkably effective
